Experimental data taken from CN107308170A, “药物联用在制备抗炎药物中的应用以及抗炎药物组合物” (priority 2017, dated 2017).

How the values were obtained:
[1] = test system: xylene-induced swelling of the mouse right ear (二甲苯所致的小鼠右耳肿胀); test: 二甲苯致小鼠耳肿胀抗炎试验 (xylene-induced mouse ear swelling test); type: in vivo; conditions: oral gavage; for inhibition of xylene-induced right ear swelling (in words) / swelling degree compared with aspirin (in words): used alone, 10mg/kg; for swelling degree compared with aspirin (in words): versus aspirin 150mg/kg
[2] = test system: Hep-2 cells (Hep-2细胞); type: cell-based; conditions: 3 days, MTT

SMILES	swelling degree ([1]; aspirin 150mg/kg, once daily for 5 days, xylene 50μL on right ear 1h after last dose, ears weighed 1h later)	anti-inflammatory effect compared between aspirin and test substances (in words) ([1]; aspirin 150mg/kg, test substances 10mg/kg, 5 days)	inhibition of xylene-induced right ear swelling (in words) ([1]; 5 days)	swelling degree compared with aspirin (in words) ([1]; 5 days)	CC50 compared with the three-component combination (in words) [2]
CC(=O)Oc1ccccc1C(=O)O [阿司匹林, reference compound]	8.56 mg	优于蟾毒灵、酯蟾毒配基或远华蟾蜍精			
C[C@]12CC[C@H](O)C[C@H]1CC[C@@H]1[C@@H]2CC[C@]2(C)[C@@H](c3ccc(=O)oc3)C[C@H]3O[C@]132 [酯蟾毒配基]			能够抑制二甲苯所致的小鼠右耳肿胀	肿胀度大于阳性对照药阿司匹林	远远小于蟾毒灵、酯蟾毒配基以及远华蟾蜍精三者的组合
C[C@]12CC[C@H](O)C[C@H]1CC[C@@H]1[C@@H]2CC[C@]2(C)[C@@H](c3ccc(=O)oc3)CC[C@]12O [蟾毒灵]			能够抑制二甲苯所致的小鼠右耳肿胀	肿胀度大于阳性对照药阿司匹林	远远小于蟾毒灵、酯蟾毒配基以及远华蟾蜍精三者的组合
C[C@]12CC[C@H](O)C[C@@]1(O)CC[C@@H]1[C@@H]2CC[C@]2(C)[C@@H](c3ccc(=O)oc3)CC[C@]12O [远华蟾蜍精]			能够抑制二甲苯所致的小鼠右耳肿胀	肿胀度大于阳性对照药阿司匹林	远远小于蟾毒灵、酯蟾毒配基以及远华蟾蜍精三者的组合
